This is an account of results in ChEMBL document CHEMBL5120881, “Silencing Tautomerization to Isolate Unstable Physalins from Physalis minima” (J Nat Prod, 2022).

Data set [1] is described as follows: Cytotoxicity against mouse RAW264.7 cells assessed as reduction in cell viability incubated for 48 hrs by CCK8 assay. The data set is classed as toxicity, cell-based. (Formazan colour is commonly taken as a measure of viable cells.)
Data set [2] relates to A549. Nature of the data set: Antiproliferative activity against human A549 cells assessed as reduction in cell viability incubated for 48 hrs by CCK8 assay. The data set is classed as functional, cell-based. As to conditions: A549, 48 h.
Data set [3] is described as follows: Cytotoxicity against human L02 cells assessed as reduction in cell viability incubated for 48 hrs by CCK8 assay. The data set is classed as toxicity, cell-based.
Data set [4] relates to SGC-7901. In words: Antiproliferative activity against human SGC-7901 cells assessed as reduction in cell viability incubated for 48 hrs by CCK8 assay. Type of data set: functional, cell-based. As to conditions: SGC-7901, 48 h.
Data set [5] deals with MCF7. In words: Antiproliferative activity against human MCF7 cells assessed as reduction in cell viability incubated for 48 hrs by CCK8 assay. Type of data set: functional, cell-based. The following applies: MCF7, 48 h.
Data set [6] has as its system RAW264.7. Nature of the data set: Antiinflammatory activity in mouse RAW264.7 assessed as inhibition of LPS-stimulated NO production pretreated with LPS followed by compund addition by Griess reagent based microplate reader assay. The data set is classed as functional, cell-based. The following applies: Mus musculus, RAW264.7. A general note: The Griess reaction detects nitrite, a stable product of nitric oxide.

Data set [7] has as its system HepG2. Nature of the data set: Antiproliferative activity against human HepG2 cells assessed as reduction in cell viability incubated for 48 hrs by CCK8 assay. The following applies: HepG2, 48 h. Type of data set: functional, cell-based.

SMILES strings stand for the structures. pIC50: −log10 of the molar value. A value given as a limit tells only on which side of the number the result lay.

What is called IC50 is the concentration needed to halve the response being measured. As usually defined, the pIC50 is −log10 of the IC50, conventionally taken in molar units. In the case of `COC(=O)C(C)(O)[C@@]1(C)C[C@@H](O)[C@]2(C)OC(=O)[C@@]3(O)CC[C@H]4[C@@H](C[C@@H](O)[C@@]5(O)CC=CC(=O)[C@]45C)[C@]4(O)O[C@@]23[C@H]1C4=O` (some centres undefined), the IC50 at 48 h in data set [1] and in data set [3] was over 50 µM each time. In addition, the pIC50 in data set [2] was under 4.30; in data set [4] it was under 4.30; in data set [5], under 4.30; in data set [6] it was 5.54; in data set [7] it was under 4.30.

`C[C@@]12C[C@H]3OC(=O)[C@]1(O)CO[C@@]14O[C@@]5([C@H]2C1=O)[C@@]3(C)OC(=O)[C@@]5(O)CC[C@H]1[C@H]4C[C@H](O)[C@]2(O)CC=CC(=O)[C@]12C`: the 50% inhibitory concentration (IC50) at 48 h in data set [1] and in data set [3] was over 50 µM throughout. Besides, the pIC50 in data set [2] was under 4.30; in data set [4] it was under 4.30; in data set [5] it was under 4.30; in data set [6], 4.83; in data set [7], under 4.30.

As to `C[C@@H]1C(=O)O[C@@H]2C[C@@]1(C)[C@@H]1C(=O)[C@@]3(O)O[C@]14[C@@]2(C)OC(=O)[C@@]4(O)CC[C@H]1[C@H]3C[C@@H](O)[C@@]2(O)CC=CC(=O)[C@]12C`, the IC50 at 48 h in data set [1] and in data set [3] was over 50 µM throughout. Also, the negative logarithm of the IC50 (pIC50) is under 4.30 in data set [2]; under 4.30 in data set [4]; under 4.30 in data set [5]; 4.25 in data set [6]; under 4.30 in data set [7].

As to `COC(=O)CCC(=O)O[C@]12CC=CC(=O)[C@]1(C)[C@H]1CC[C@]3(O)C(=O)O[C@@]4(C)[C@H]5C[C@]6(C)[C@@H](CO[C@]7(O[C@@]43[C@H]6C7=O)[C@@H]1C[C@H]2O)C(=O)O5`, the IC50 at 48 h in data set [1] and in data set [3] was over 50 µM in each case. Also, the pIC50 in data set [2] was under 4.30; in data set [4], under 4.30; in data set [5], under 4.30; in data set [6], 5.51; in data set [7], under 4.30.

Take `C[C@]12C(=O)CC=CC1=CC[C@@H]1[C@@H]2CC[C@]2(O)C(=O)O[C@@]3(C)[C@H]4C[C@@]5(C)[C@@H]6C(=O)[C@@]1(OC[C@@]5(O)C(=O)O4)O[C@@]632`: the half-maximal inhibitory concentration (IC50) at 48 h in data set [1] and in data set [3] was over 50 µM throughout. Besides, the pIC50 in data set [2] is under 4.30; in data set [4], under 4.30; in data set [5], under 4.30; in data set [6], 4.76; in data set [7] it was under 4.30.

Take `COC(=O)C[C@@H](O)C(=O)O[C@]12CC=CC(=O)[C@]1(C)[C@H]1CC[C@]3(O)C(=O)O[C@@]4(C)[C@H]5C[C@]6(C)[C@@H](CO[C@]7(O[C@@]43[C@H]6C7=O)[C@@H]1C[C@H]2O)C(=O)O5`: the IC50 at 48 h in data set [1] and in data set [3] was over 50 µM throughout. Further, the negative logarithm of the IC50 (pIC50) in data set [2] is under 4.30; in data set [4] it was under 4.30; in data set [5], under 4.30; in data set [6], 4.49; in data set [7], under 4.30.

Take `C[C@]12C(=O)C=CC=C1[C@H](O)C[C@@H]1[C@@H]2CC[C@]2(O)C(=O)O[C@@]3(C)[C@H]4C[C@@]5(C)[C@@H]6C(=O)[C@@]1(OC[C@@]5(O)C(=O)O4)O[C@@]632`: the concentration for half-maximal inhibition (IC50) at 48 h in data set [1] and in data set [3] was over 50 µM throughout. For the same compound, the pIC50 in data set [2] was under 4.30; in data set [4], under 4.30; in data set [5], under 4.30; in data set [6], 5.19; in data set [7] it was under 4.30.

On to `C[C@@]12C[C@H]3OC(=O)[C@@H]1CO[C@]14C(=O)O[C@@]5([C@H]21)[C@@]3(C)OC(=O)[C@@]5(O)CC[C@H]1[C@H]4CC[C@@]2(O)CC=CC(=O)[C@]12C`, for which the IC50 at 48 h in data set [1] and in data set [3] was over 50 µM in each case. In addition, the pIC50 is under 4.30 in data set [2]; under 4.30 in data set [4]; under 4.30 in data set [5]; 4.10 in data set [6]; under 4.30 in data set [7].

`C[C@@]12C[C@H]3OC(=O)[C@@H]1CO[C@]14O[C@@]5([C@H]2C1=O)[C@@]3(C)OC(=O)[C@@]5(O)CC[C@H]1[C@H]4C[C@H]2O[C@]23CC=CC(=O)[C@]13C`: the concentration for half-maximal inhibition (IC50) at 48 h in data set [1] and in data set [3] was over 50 µM throughout. For the same compound, the negative-log IC50 (pIC50) in data set [2] is under 4.30; in data set [4], under 4.30; in data set [5], under 4.30; in data set [6], 5.10; in data set [7] it was under 4.30.

Turning to `C[C@@]12C[C@H]3OC(=O)[C@@H]1CO[C@@]14O[C@@]5([C@H]2C1=O)[C@@]3(C)OC(=O)[C@@]5(O)CC[C@H]1[C@H]4C[C@H](O)[C@]2(O)CC=CC(=O)[C@]12C`, the half-inhibitory concentration (IC50) at 48 h in data set [1] and in data set [3] was over 50 µM in each case. Also, the pIC50 in data set [2] is under 4.30; in data set [4], under 4.30; in data set [5] it was under 4.30; in data set [6], 4.36; in data set [7] it was under 4.30.

Turning to `C[C@]12C(=O)C=CC=C1[C@@H](O)C[C@@H]1[C@@H]2CC[C@@]2(O)C(=O)O[C@@]3(C)[C@H]4C[C@]5(C)[C@@H](CO[C@@]16O[C@]23[C@H]5C6=O)C(=O)O4` [PHYSALIN G], the half-inhibitory concentration (IC50) at 48 h in data set [1] and in data set [3] was over 50 µM throughout. Moreover, the pIC50 in data set [2] was under 4.30; in data set [4], under 4.30; in data set [5] it was under 4.30; in data set [6], 4.87; in data set [7], under 4.30.

Consider `CO[C@]12C=CCC(=O)[C@]1(C)[C@H]1CC[C@]3(O)C(=O)O[C@@]4(C)[C@H]5C[C@]6(C)[C@@H](CO[C@]7(O[C@@]43[C@H]6C7=O)[C@@H]1C[C@H]2O)C(=O)O5`, for which the IC50 at 48 h in data set [1] and in data set [3] was over 50 µM each time. The negative logarithm of the IC50 (pIC50) was under 4.30 in data set [2]; under 4.30 in data set [4]; under 4.30 in data set [5]; 4.62 in data set [6]; under 4.30 in data set [7].

Take `COC(=O)C[C@H](O)C(=O)O[C@]12CC=CC(=O)[C@]1(C)[C@H]1CC[C@]3(O)C(=O)O[C@@]4(C)[C@H]5C[C@]6(C)[C@@H](CO[C@]7(O[C@@]43[C@H]6C7=O)[C@@H]1C[C@H]2O)C(=O)O5`: the 50% inhibitory concentration (IC50) at 48 h in data set [1] and in data set [3] was over 50 µM in each case. Further, the pIC50 is under 4.30 in data set [2]; under 4.30 in data set [4]; under 4.30 in data set [5]; 4.55 in data set [6]; under 4.30 in data set [7].

For `C[C@@]12C[C@H]3OC(=O)[C@@H]1CO[C@@]14O[C@]56[C@H]2[C@]1(O)[C@H](C[C@]5(O)C(=O)O[C@@]36C)[C@H]1[C@H]4CC(O)[C@]2(O)CC=CC(=O)[C@]12C` (some centres undefined), the IC50 at 48 h in data set [1] and in data set [3] was over 50 µM in each case. Also, the pIC50 in data set [2] is under 4.30; in data set [4], under 4.30; in data set [5], under 4.30; in data set [6], 5.05; in data set [7], under 4.30.

`CNC(=N)NCCC[C@H](N)C(=O)OC`: in data set [6], the pIC50 is 4.37.
